Assay results reported in patent publication US20170050966A1, “INHIBITING THE TRANSIENT RECEPTOR POTENTIAL A1 ION CHANNEL” (HYDRA BIOSCIENCES, INC., priority 2014, published 2017).

Tests used:
CYP2D6 = CYP2D6 (Homo sapiens, UniProt P10635); assay: P450 Cyp-inhibition luminescent assay; format: biochemical
Description: (§1) The ability of Compound 2 to inhibit human CYP450 enzymes was evaluated. Compound 1 and Compound 2 were tested in standard P450 Cyp-inhibition luminescent assay.

CYP2C19 = CYP2C19 (Homo sapiens, UniProt P33261); assay: P450 Cyp-inhibition luminescent assay; format: biochemical
Sequence of CYP2C19 (P33261 whole entry): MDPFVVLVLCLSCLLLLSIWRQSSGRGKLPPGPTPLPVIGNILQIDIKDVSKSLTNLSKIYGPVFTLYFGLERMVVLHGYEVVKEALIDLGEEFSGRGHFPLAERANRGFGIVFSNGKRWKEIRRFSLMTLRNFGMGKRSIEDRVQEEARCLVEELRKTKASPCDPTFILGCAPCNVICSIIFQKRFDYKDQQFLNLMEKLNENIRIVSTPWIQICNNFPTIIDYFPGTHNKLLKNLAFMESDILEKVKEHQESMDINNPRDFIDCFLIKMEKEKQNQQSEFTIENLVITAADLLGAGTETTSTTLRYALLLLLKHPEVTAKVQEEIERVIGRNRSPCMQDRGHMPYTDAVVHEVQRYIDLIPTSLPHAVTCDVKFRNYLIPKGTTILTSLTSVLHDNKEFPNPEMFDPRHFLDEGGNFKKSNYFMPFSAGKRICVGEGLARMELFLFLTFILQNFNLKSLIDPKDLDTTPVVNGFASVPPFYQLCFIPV
Description: as §1

CYP1A2 = target: T1, CYP1A2 (Homo sapiens, UniProt P05177); assay: P450 Cyp-inhibition luminescent assay; format: biochemical
T1 sequence (P05177 1-516): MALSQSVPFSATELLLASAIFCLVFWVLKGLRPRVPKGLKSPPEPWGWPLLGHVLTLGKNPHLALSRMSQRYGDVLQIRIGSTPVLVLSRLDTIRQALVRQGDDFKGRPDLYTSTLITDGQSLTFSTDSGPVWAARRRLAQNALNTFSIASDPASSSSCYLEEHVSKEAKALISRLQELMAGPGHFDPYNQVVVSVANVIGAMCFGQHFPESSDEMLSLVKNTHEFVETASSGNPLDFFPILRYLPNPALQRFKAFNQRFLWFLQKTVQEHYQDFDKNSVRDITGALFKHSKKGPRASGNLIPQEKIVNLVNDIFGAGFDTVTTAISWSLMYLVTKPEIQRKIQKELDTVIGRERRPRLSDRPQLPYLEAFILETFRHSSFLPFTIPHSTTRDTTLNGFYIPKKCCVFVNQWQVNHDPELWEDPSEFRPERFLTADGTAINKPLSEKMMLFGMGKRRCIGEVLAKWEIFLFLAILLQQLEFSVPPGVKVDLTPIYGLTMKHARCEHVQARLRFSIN
Description: as §1

CYP2C9 = CYP2C9 (Homo sapiens, UniProt P11712); assay: P450 Cyp-inhibition luminescent assay; format: biochemical
Sequence of CYP2C9 (P11712 whole entry): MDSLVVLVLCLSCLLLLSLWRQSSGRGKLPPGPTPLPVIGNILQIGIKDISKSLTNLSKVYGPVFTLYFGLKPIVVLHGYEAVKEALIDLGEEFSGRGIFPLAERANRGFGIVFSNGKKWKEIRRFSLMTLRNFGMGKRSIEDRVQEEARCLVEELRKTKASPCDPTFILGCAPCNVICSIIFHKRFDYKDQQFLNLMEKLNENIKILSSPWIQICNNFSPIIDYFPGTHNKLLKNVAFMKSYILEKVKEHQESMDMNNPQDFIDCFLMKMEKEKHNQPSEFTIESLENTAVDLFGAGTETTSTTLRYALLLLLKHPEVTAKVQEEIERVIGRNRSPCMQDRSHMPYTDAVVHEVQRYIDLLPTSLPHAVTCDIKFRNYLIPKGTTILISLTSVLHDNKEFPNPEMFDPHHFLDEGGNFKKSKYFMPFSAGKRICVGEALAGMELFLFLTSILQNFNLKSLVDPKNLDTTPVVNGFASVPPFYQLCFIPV
Description: as §1

CYP3A4 = CYP3A4 (Homo sapiens, UniProt P08684); assay: P450 Cyp-inhibition luminescent assay; format: biochemical
Sequence of CYP3A4 (P08684 whole entry): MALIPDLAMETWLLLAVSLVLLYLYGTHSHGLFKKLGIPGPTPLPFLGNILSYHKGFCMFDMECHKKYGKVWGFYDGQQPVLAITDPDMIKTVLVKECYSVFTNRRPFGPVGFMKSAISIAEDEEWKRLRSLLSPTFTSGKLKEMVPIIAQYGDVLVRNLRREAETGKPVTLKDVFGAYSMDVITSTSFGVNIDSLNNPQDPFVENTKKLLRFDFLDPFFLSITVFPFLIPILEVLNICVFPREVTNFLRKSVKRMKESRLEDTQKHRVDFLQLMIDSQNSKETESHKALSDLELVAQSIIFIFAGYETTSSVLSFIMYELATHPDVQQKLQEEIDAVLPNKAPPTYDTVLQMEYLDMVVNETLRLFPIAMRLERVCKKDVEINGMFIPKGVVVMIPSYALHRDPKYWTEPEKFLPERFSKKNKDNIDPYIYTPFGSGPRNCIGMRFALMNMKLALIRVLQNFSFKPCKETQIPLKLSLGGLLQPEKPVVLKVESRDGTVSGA
Description: as §1

[1] = system: formalin model in the rat; assay: Formalin-induced pain test; format: in vivo
Description: Compound 2 was tested in the formalin-induced pain test reported by Dubuisson et al., Pain (1977) December; 4(2):161-74. Dubuisson et al describe a method for assessing pain and analgesia in rats and cats. Briefly, dilute formalin (50 μL of 3% formalin) is injected into the plantar surface of the hind paw of a rat. […] The initial phase (Phase I: 0-5 min) is thought to have a significant component that is dependent upon direct activation of afferent fibers by formalin and functional TRPA1 (McNamara et al., 2007). The individual responsible for counting the pain behaviors in a particular study is blinded to the treatment groups.
Investigators studied oral administration of Compound 2 at 1, 3 and 10 mg/kg on pain behaviors in the formalin model in the rat. Compound 2 was prepared as solutions in 4% DMSO, 10% Solutol HS15, 86% WFI. Animals were dosed orally with Vehicle (4% DMSO, 10% Solutol, 86% WFI), or Compound 2 at 1, 3 or 10 mg/kg one hour prior to intraplantar formalin. […] (n=8 per group) (*=p<0.05, **=p<0.01, *** p<0.001: 1-tailed T-test)
A reduction in the duration of pain behaviors was also observed with Compound 4 from 0-5 minutes post-formalin administration. Using the methods described above for the formalin assay, Compound 4 was formulated as a solution in 4% DMSO; 5% Tween-80; 20% Cremophor EL; and 71% WFI and administered by oral gavage to rats.
Using the methods described above for the formalin assay, Compound 4 was formulated as a suspension in 0.5% methylcellulose and administered by oral gavage to rats.
The persistence of the response was also studied. Compound 2 was prepared as a solution in 4% DMSO, 10% Solutol HS15, and 86% WFI. Rats were treated with 10 mg/kg of oral doses of Compound 2 or with the vehicle (PO).

[2] = system: CFA-induced cold hyperalgesia model in the rat; assay: CFA-induced cold hypersensitivity, paw withdrawal latency; format: in vivo; settings: for Pre-RX PWL / Pre-Rx PWL: before dosing
Description: Embodiments of the invention may be efficacious in the treatment of inflammatory pain. Compound 2 tested by the CFA-induced pain test method. […]
Briefly, the hind paw is sensitized to cold temperature (allodynic), by administering 0.1 mL of Complete Freund's Adjuvant (CFA) is administered to the right hind paw. Three days later, the time taken for the animal to lift its CFA-injected paw is recorded compared to its un-injected normal left hind paw. […] To avoid tissue damage the maximum cut-off time is 5 minutes. Animals that are allodynic (average PWL to the first three pain behaviors <150 seconds for the CFA-injected hind paw: ˜≧50% difference between the normal and CFA-injected paw) are included in the study and subsequently randomized across treatment groups. The following day, the animals are dosed under blinded conditions. Following the 1-2 hour pre-treatment time, the post-dose PWL readings are again taken. The efficacy of the drug treatment is assessed by comparing the PWL in the drug treatment animals to those animals that receive the vehicle.
Compound 4 was also tested using the methods disclosed.
In a further study, compounds of the invention were tested for efficacy at low doses for the treatment of inflammatory pain. Using the methods disclosed in above, Compound 2 was dosed at ranges of 0.1 to 1 mg/kg PO. The positive comparator TRPA1 antagonist Compound A was also tested at a dose of 150 mg/kg IP. […] Oral drug delivery was accomplished using a 20-gauge 1½″ oral gavage needle and a 5 cc syringe. Fed rats received a single oral gavage of Compound 2 at 0.03, 0.1, 0.3, or 1 mg/kg or Vehicle, 2 hours prior to testing

[3] = 10 mg/kg PO, 1 Hr pre-treatment
[4] = 10 mg/kg PO, 2 Hr pre-treatment
[5] = 10 mg/kg PO, 4 Hr pre-treatment
[6] = 10 mg/kg PO, 6 Hr pre-treatment
[7] = 10 mg/kg PO, 15 Min pre-treatment
[8] = 10 mg/kg PO, 24 Hr pre-treatment
[9] = 10 mg/kg PO, 30 Min pre-treatment
[10] = 1 mpk PO, one hour prior to formalin
[11] = 3 mpk PO, one hour prior to formalin
[12] = 10 mpk PO, one hour prior to formalin
[13] = 1 mg/kg PO, suspension in 0.5% methylcellulose
[14] = 1 mpk PO, solution in DMSO/Tween-80/Cremophor EL/WFI
[15] = 1 mpk PO, suspension in 0.5% methylcellulose

Sequence of CYP2D6 (P10635 whole entry): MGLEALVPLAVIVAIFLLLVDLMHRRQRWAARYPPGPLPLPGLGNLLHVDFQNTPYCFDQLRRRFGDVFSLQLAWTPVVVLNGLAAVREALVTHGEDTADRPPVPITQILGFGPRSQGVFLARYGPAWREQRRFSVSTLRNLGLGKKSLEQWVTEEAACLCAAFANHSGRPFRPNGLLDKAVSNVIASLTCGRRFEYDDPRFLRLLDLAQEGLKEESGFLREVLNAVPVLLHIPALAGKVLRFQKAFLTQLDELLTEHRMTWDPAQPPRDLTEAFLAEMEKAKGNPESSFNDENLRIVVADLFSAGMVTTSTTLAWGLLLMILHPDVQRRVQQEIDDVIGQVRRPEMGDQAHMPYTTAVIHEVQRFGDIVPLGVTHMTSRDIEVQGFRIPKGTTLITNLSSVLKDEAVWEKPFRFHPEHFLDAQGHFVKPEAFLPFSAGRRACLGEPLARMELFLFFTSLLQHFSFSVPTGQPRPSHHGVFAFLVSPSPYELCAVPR

For `C[C@@H](C(=O)Nc1ccnc(-c2cnc(N3CCCC3(C)C)nc2)n1)n1cnc2c1c(=O)n(C)c(=O)n2C` [Compound 1, (S)-2-(1,3-dimethyl-2,6-dioxo-2,3-dihydro-1H-purin-7(6H)-yl)-N-(2′-(2,2-dimethylpyrrolidin-1-yl)-[2,5′-bipyrimidin]-4-yl)propanamide], the “CYP 2D6: % Inhibition” value (CYP2D6) was 9%, the “CYP 2C19: % Inhibition” value (CYP2C19) was 45.9% and the “CYP 1A2: % Inhibition” value (CYP1A2) was 4.2%. For the same molecule, the “CYP 2C9: % Inhibition” value (CYP2C9) was 71.4%, the “CYP 3A4: % Inhibition” value (CYP3A4) was 26.9% and the “Duration 0-2 min” value ([1]; 1 mg/kg IV) was 35.50 s. The “Duration 0-5 min” value ([1]; 1 mg/kg IV) was 153.25 s, the “Duration 0-2 min” value ([1]; 3 mg/kg IV) was 6.25 s and the “Duration 0-5 min” value ([1]; 3 mg/kg IV) was 111.25 s.
For `C[C@@H](C(=O)Nc1ccnc(-c2cnc(N3CCC[C@H]3C(F)(F)F)nc2)n1)n1cnc2c1c(=O)n(C)c(=O)n2C` [Compound 2, (S)-2-(1,3-dimethyl-2,6-dioxo-2,3-dihydro-1H-purin-7(6H)-yl)-N-(2′-((S)-2-(trifluoromethyl)pyrrolidin-1-yl)-[2,5′-bipyrimidin]-4-yl)propanamide], the “CYP 2D6: % Inhibition” value (CYP2D6) was 6.3%, the “CYP 2C19: % Inhibition” value (CYP2C19) was 29.1% and the “CYP 1A2: % Inhibition” value (CYP1A2) was 0.299%. For the same molecule, the “CYP 2C9: % Inhibition” value (CYP2C9) was 39.6%, the “CYP 3A4: % Inhibition” value (CYP3A4) was 2.7% and the “reversal of CFA-induced cold hypersensitivity” value ([2]; 0.03 mg/kg PO) was “did not exert a statistically significant effect”. For the same molecule, the “PWL Change” value ([2]; 0.03 mpk PO, 2 hours prior to testing) was 14.8 s, the “reversal of CFA-induced cold hypersensitivity” value ([2]; 0.1, 0.3, and 1 mg/kg PO) was “significant reversal of CFA-induced cold hypersensitivity” and the “PWL Change” value ([2]; 0.1 mpk PO, 2 hours prior to testing) was 43.1 s. For the same molecule, the “Post RX PWL” value ([2]; 0.3 mpk PO) was 197.7 s, the “Pre-RX PWL” value ([2]; 0.3 mpk PO group) was 104.0 s and the “PWL Change” value ([2]; 0.3 mpk PO, 2 hours prior to testing) was 74.1 s. The “Post RX PWL” value ([2]; 1 mpk PO) was 243.0 s, the “Pre-RX PWL” value ([2]; 1 mpk PO group) was 103.7 s and the “PWL Change” value ([2]; 1 mpk PO, 2 hours prior to testing) was 104.8 s. For the same molecule, the “Post RX PWL” value ([2]; 3 mpk PO) was 249.6 s, the “Pre-RX PWL” value ([2]; 3 mpk PO group) was 103.9 s and the “Post RX PWL” value ([2]; 10 mpk PO) was 237.3 s. For the same molecule, the “Pre-RX PWL” value ([2]; 10 mpk PO group) was 104.0 s, the “effect on cold hypersensitivity” value ([2]; oral doses of 0.3 to 10 mg/kg) was “attenuated cold hypersensitivity” and the “reduction of pain behaviors from 0-5 minutes” value ([1]; 1 mg/kg PO, vs vehicle, did not reach statistical significance) was about 14%. For the same molecule, the “decrease in the duration of pain behaviors from 0-2 minutes” value ([1]; 1 mg/kg PO, vs vehicle, not statistically significant) was about 14%, the “decrease in formalin-induced pain behaviors from 0-2 minutes” value ([1]; 3 mg/kg PO, vs vehicle) was about 72% and the “reduction of duration of pain behaviors from 0-5 minutes” value ([1]; 3 mg/kg PO, vs vehicle) was about 46%. For the same molecule, the “Duration 0-2 min” value [1, 3] was 14.50 s, the “Duration 0-5 min” value [1, 3] was 146.14 s and the “Duration 0-2 min” value [1, 4] was 12.00 s. The “Duration 0-5 min” value [1, 4] was 118.10 s, the “Duration 0-2 min” value [1, 5] was 19.00 s and the “Duration 0-5 min” value [1, 5] was 135.84 s. The “Duration 0-2 min” value [1, 6] was 22.75 s, the “Duration 0-5 min” value [1, 6] was 156.61 s and the “Duration 0-2 min” value [1, 7] was 82.50 s. The “Duration 0-5 min” value [1, 7] was 185.43 s, the “Duration 0-2 min” value [1, 8] was 96.63 s and the “Duration 0-5 min” value [1, 8] was 197.15 s. For the same molecule, the “Duration 0-2 min” value [1, 9] was 62.50 s, the “Duration 0-5 min” value [1, 9] was 181.40 s and the “decrease in the duration of formalin-induced pain behaviors 0-2 minutes” value ([1]; 10 mg/kg PO, 15 minute to 6 hour pre-treatment, vs vehicle) was 30-87%. The “duration of formalin-mediated pain behaviors” value ([1]; 10 mg/kg PO, 30 minutes to 6 hours prior to formalin injection) was “significantly decreased the duration of formalin-mediated pain behaviors”, the “decrease in formalin-induced pain behaviors from 0-2 minutes” value ([1]; 10 mg/kg PO, vs vehicle) was about 89% and the “reduction of duration of pain behaviors from 0-5 minutes” value ([1]; 10 mg/kg PO, vs vehicle) was about 60%. The “Duration 0-2 min” value [1, 10] was 73.00 s, the “Duration 0-5 min” value [1, 10] was 157.38 s and the “Duration 0-2 min” value [1, 11] was 23.25 s. For the same molecule, the “Duration 0-5 min” value [1, 11] was 99.00 s, the “Duration 0-2 min” value [1, 12] was 9.25 s and the “Duration 0-5 min” value [1, 12] was 73.50 s.
For `C[C@@H](C(=O)Nc1ccnc(-c2cnc(N3CCC[C@@H]3C(F)(F)F)nc2)n1)n1cnc2c1c(=O)n(C)c(=O)n2C` [Compound 4, (S)-2-(1,3-dimethyl-2,6-dioxo-2,3-dihydro-1H-purin-7(6H)-yl)-N-(2′-((R)-2-(trifluoromethyl)pyrrolidin-1-yl)-[2,5′-bipyrimidin]-4-yl)propanamide], the “Pre-Rx PWL” value ([2]; 1 mg/kg PO group, suspension in 0.5% methylcellulose) was 101.7 s, the “PWL Change” value [2, 13] was 148.6 s and the “Post-Rx PWL” value [2, 13] was 250.3 s. For the same molecule, the “Pre-Rx PWL” value ([2]; 3 mg/kg PO group, suspension) was 101.1 s, the “PWL Change” value ([2]; 3 mg/kg PO, suspension) was 140.9 s and the “Post-Rx PWL” value ([2]; 3 mg/kg PO, suspension) was 242.1 s. The “Pre-Rx PWL” value ([2]; 10 mg/kg PO group, suspension) was 101.5 s, the “PWL Change” value ([2]; 10 mg/kg PO, suspension) was 132.6 s and the “Post-Rx PWL” value ([2]; 10 mg/kg PO, suspension) was 234.1 s. For the same molecule, the “Duration 0-2 min” value [1, 14] was 76.13 s, the “Duration 0-5 min” value [1, 14] was 197.88 s and the “Duration 0-2 min” value [1, 15] was 80.38 s. For the same molecule, the “Duration 0-5 min” value [1, 15] was 186.25 s, the “Duration 0-2 min” value ([1]; 3 mpk PO, solution) was 45.25 s and the “Duration 0-5 min” value ([1]; 3 mpk PO, solution) was 175.88 s. For the same molecule, the “Duration 0-2 min” value ([1]; 3 mpk PO, suspension) was 51.13 s, the “Duration 0-5 min” value ([1]; 3 mpk PO, suspension) was 163.25 s and the “Duration 0-2 min” value ([1]; 10 mpk PO, solution) was 47.13 s. For the same molecule, the “Duration 0-5 min” value ([1]; 10 mpk PO, solution) was 191.00 s, the “Duration 0-2 min” value ([1]; 10 mpk PO, suspension) was 38.13 s and the “Duration 0-5 min” value ([1]; 10 mpk PO, suspension) was 144.25 s.
